Assays:
Assay type in all cases: biochemical
CYP1A2 = target: T1, CYP1A2 (Homo sapiens, UniProt P05177); experiment: Cocktail assay for CYPs, phenacetin O-deethylation (CYP1A2), human liver microsomes; settings: 10 μM phenacetin, 0.1 mg/mL human liver microsomes, 10 min at 37° C.; read-out: CYP IC50 (nM) 1A2
T1 construct: 0.1 mg/mL protein human liver microsomes (BD Gentest); tissue BD Gentest; host or cells: human liver microsomes
T1 sequence (P05177 1-516): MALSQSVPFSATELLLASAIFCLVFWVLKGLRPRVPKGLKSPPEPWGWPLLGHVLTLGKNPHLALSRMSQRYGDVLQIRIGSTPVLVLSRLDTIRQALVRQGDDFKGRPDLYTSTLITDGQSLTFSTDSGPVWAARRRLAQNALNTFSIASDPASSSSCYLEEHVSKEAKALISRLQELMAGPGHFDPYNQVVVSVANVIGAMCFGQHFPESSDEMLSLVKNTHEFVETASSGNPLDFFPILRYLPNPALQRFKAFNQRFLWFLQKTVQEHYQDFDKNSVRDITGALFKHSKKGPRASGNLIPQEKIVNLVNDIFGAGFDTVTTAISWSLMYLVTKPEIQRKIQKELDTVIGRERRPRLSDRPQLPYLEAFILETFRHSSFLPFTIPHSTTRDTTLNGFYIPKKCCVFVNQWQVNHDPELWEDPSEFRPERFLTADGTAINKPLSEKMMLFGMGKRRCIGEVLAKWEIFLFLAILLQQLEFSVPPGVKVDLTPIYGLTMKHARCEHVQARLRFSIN
How it was run: (§1)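 Pooled human liver microsomes (0.1 mg/mL) with a probe cocktail of 10 μM phenacetin, 5 μM dextromethorphan and 2 μM midazolam plus NADPH, pH 7.4, 10 min at 37° C. Each metabolite was quantified by LC/MS/MS against a tolbutamide internal standard. IC50 came from % inhibition at 6 concentrations (e.g. 0.0032–10 μM) by non-linear regression.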

CYP3A4 [1] = target: T2, CYP3A4 (Homo sapiens, UniProt P08684); experiment: IC50 vs CYP3A by inhibition of lopinavir metabolism in human liver microsomes; set-up: 0.01 mg/mL protein human liver microsomes (BD Gentest); tissue BD Gentest; host or cells: human liver microsomes; settings: 1.5 μM lopinavir, 0.01 mg/mL human liver microsomes, 8 min at 37° C.; read-out: CYP IC50 (nM) 3A4 (LPV)
How it was run: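 Human liver microsomes (0.01 mg/mL) with 1.5 μM lopinavir, 1 mM NADPH, 3.3 mM MgCl2 in 100 mM potassium phosphate pH 7.4, 8 min at 37 °C, six compound concentrations. Summed M2/M3/M4 hydroxy metabolites quantified by LC/MS/MS against tolbutamide; % inhibition normalised between no-inhibitor and 5 μM ketoconazole controls, IC50 by non-linear regression.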
Target sequence in this assay (P08684 2-503): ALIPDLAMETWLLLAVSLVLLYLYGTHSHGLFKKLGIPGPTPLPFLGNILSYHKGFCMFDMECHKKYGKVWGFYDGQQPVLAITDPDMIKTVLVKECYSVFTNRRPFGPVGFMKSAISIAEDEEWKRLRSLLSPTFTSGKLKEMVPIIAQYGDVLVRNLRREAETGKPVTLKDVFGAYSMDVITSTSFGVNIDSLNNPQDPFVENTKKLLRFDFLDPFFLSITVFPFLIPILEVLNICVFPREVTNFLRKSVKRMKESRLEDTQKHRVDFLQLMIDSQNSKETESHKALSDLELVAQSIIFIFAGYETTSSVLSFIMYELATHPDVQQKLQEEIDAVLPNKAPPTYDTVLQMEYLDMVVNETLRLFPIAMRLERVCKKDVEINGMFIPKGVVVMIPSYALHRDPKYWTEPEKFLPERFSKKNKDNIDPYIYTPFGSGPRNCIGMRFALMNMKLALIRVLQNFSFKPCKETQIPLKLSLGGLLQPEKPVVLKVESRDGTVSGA

CYP2D6 = target: T3, CYP2D6 (Homo sapiens, UniProt P10635); experiment: Cocktail assay for CYPs, dextromethorphan O-demethylation (CYP2D6), human liver microsomes; settings: 5 μM dextromethorphan, 0.1 mg/mL human liver microsomes, 10 min at 37° C.; read-out: CYP IC50 (nM) 2D6
T3 construct: 0.1 mg/mL protein human liver microsomes (BD Gentest); tissue BD Gentest; host or cells: human liver microsomes
T3 sequence (P10635 whole entry): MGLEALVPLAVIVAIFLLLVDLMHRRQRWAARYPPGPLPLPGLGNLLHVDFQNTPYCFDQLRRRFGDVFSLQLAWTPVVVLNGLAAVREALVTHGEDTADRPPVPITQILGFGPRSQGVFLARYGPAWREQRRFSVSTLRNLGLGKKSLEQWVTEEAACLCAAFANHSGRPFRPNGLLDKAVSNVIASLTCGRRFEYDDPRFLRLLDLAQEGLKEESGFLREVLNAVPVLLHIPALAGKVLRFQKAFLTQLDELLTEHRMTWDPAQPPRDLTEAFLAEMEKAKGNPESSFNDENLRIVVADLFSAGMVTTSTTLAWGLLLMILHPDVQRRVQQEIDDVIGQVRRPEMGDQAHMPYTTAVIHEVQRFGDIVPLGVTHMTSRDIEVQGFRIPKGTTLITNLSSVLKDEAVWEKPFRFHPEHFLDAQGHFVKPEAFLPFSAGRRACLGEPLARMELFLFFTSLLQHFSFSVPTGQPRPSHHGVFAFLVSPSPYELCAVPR
How it was run: as §1

CYP3A4 [2] = target: T2, CYP3A4; experiment: Cocktail assay for CYPs, midazolam 1′-hydroxylation (CYP3A4), human liver microsomes; set-up: 0.1 mg/mL protein human liver microsomes (BD Gentest); tissue BD Gentest; host or cells: human liver microsomes; settings: 2 μM midazolam, 0.1 mg/mL human liver microsomes, 10 min at 37° C.; read-out: CYP IC50 (nM) 3A4 (MDZ)
How it was run: as §1
Target sequence in this assay (P08684 whole entry): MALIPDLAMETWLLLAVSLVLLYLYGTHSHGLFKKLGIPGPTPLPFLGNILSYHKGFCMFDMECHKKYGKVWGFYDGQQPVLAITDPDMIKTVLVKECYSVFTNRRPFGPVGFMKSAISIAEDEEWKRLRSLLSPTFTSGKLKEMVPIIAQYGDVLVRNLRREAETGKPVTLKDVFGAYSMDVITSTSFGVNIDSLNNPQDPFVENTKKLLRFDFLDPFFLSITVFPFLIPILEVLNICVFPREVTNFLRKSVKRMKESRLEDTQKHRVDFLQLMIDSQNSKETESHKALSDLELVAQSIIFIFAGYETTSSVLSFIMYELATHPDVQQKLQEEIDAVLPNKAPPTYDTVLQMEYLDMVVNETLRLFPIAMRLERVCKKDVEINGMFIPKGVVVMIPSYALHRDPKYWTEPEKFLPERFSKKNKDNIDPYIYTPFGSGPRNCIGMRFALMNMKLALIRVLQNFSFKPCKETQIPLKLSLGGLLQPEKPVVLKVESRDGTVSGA

CYP2C19 = target: T4, CYP2C19 (Homo sapiens, UniProt P33261); experiment: Cocktail assay for CYPs, mephenytoin 4′-hydroxylation (CYP2C19), human liver microsomes; settings: 30 μM mephenytoin, 0.1 mg/mL human liver microsomes, 10 min at 37° C.; read-out: CYP IC50 (nM) 2C19
T4 construct: 0.1 mg/mL protein human liver microsomes (BD Gentest); tissue BD Gentest; host or cells: human liver microsomes
T4 sequence (P33261 whole entry): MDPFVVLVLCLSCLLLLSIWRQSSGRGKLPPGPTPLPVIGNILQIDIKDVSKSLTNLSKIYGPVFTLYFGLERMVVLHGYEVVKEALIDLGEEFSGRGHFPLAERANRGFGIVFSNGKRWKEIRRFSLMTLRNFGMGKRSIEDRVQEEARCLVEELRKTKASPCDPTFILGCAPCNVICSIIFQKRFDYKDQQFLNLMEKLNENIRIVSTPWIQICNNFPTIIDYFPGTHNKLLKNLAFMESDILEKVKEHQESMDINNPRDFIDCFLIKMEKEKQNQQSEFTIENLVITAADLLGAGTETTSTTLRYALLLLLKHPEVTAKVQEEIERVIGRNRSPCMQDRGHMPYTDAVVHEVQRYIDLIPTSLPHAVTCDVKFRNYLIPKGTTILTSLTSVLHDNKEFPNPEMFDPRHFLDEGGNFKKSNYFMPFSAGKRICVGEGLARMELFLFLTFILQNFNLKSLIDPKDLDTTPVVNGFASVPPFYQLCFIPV
How it was run: (§2)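 Pooled human liver microsomes (0.1 mg/mL) with probe cocktail incl. 5 μM diclofenac (CYP2C9) and 30 μM mephenytoin (CYP2C19), 1 mM NADPH, pH 7.4 phosphate buffer, 10 min at 37° C. Metabolites quantified by LC/MS/MS against internal standard; % inhibition versus no-inhibitor control, IC50 by non-linear regression.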

CYP2C9 = target: T5, CYP2C9 (Homo sapiens, UniProt P11712); experiment: Cocktail assay for CYPs, diclofenac 4′-hydroxylation (CYP2C9), human liver microsomes; settings: 5 μM diclofenac, 0.1 mg/mL human liver microsomes, 10 min at 37° C.; read-out: CYP IC50 (nM) 2C9
T5 construct: 0.1 mg/mL protein human liver microsomes (BD Gentest); tissue BD Gentest; host or cells: human liver microsomes
T5 sequence (P11712 whole entry): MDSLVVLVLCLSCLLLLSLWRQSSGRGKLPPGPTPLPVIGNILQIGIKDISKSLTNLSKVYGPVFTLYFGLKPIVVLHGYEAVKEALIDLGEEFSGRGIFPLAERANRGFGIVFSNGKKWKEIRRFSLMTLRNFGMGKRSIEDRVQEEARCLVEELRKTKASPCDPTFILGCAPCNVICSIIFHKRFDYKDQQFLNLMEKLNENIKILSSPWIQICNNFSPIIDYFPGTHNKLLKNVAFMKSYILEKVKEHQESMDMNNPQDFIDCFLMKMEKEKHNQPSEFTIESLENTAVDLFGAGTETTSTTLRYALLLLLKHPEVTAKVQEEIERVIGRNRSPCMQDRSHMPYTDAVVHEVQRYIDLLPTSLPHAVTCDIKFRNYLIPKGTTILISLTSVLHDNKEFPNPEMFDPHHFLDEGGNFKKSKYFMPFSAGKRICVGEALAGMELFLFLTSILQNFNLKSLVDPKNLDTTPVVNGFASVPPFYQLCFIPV
How it was run: as §2

IC50 (CYP1A2) [nM]	IC50 (CYP3A4 [1]) [nM]	IC50 (CYP2D6) [nM]	IC50 (CYP3A4 [2]) [nM]	IC50 (CYP2C19) [nM]	IC50 (CYP2C9) [nM]	Compound
4620	1.4	3250	7.6	65	1050	CN(C)c1ccc(S(=O)(=O)N2CCc3c(cccc3-c3cncn3CCc3ccc(F)cc3)C2)cn1 [Compound 61, 5-((5-(1-(4-fluorophenethyl)-1H-imidazol-5-yl)-3,4-dihydroisoquinolin-2(1H)-yl)sulfonyl)-N,N-dimethyl-pyridin-2-amine]
> 10000	9.3	> 10000	13.1	> 10000	> 10000	O=C(c1cccnc1)N1CCCC1c1ccccc1-c1cncn1CCc1ccc(F)cc1 (single isomer, unassigned) [Compound 42b, (R or S)-(2-(2-(1-(4-fluorophenethyl)-1H-imidazol-5-yl)phenyl)pyrrolidin-1-yl) (pyridin-3-yl) methanone]
> 10000	58.5	6720	36.4	6920	> 10000	CS(=O)(=O)N1CCCC1c1ccccc1-c1cncn1CCc1ccc(F)cc1 (single isomer, unassigned) [Compound 23a, (R or S)-1-(4-fluorophenethyl)-5-(2-(1-(methylsulfonyl)pyrrolidin-2-yl)phenyl)-1H-imidazole]
> 10000	35.9	5200	10.5	> 10000	> 10000	O=S(=O)(NCc1ccccc1-c1cncn1CCc1ccc(F)cc1)c1cccnc1 [Compound 17, N-(2-(1-(4-fluorophenethyl)-1H-imidazol-5-yl)benzyl)pyridine-3-sulfonamide]
1240	3.2	1150	13.9	109	422	O=S(=O)(c1cnc(Cl)c(Br)c1)N1CCCC1c1cccc(-c2cncn2CCc2ccc(F)cc2)c1 (stereo not drawn) [Compound 54, 3-Bromo-2-chloro-5-((2-(3-(1-(4-fluorophenethyl)-1H-imidazol-5-yl)phenyl)pyrrolidin-1-yl)sulfonyl) pyridine]
> 10000	> 100	6510	123	> 10000	> 10000	CN1CCN(c2ncc(S(=O)(=O)N3CCc4c(ncnc4-c4cncn4CCc4ccc(F)cc4)C3)s2)CC1 [Compound 67, 5-((4-(1-(4-fluorophenethyl)-1H-imidazol-5-yl)-5,6-dihydropyrido[3,4-d]pyrimidin-7(8H)-yl)sulfonyl)-2-(4-methylpiperazin-1-yl)thiazole]
> 10000	35.2	> 10000	36.3	3270	> 10000	O=C(c1ccc(N2CCOCC2)nc1)N1CCCC1c1ccccc1-c1cncn1CCc1ccc(F)cc1 (single isomer, unassigned) [Compound 43a, (R or S)-(2-(2-(1-(4-fluorophenethyl)-1H-imidazol-5-yl)phenyl)pyrrolidin-1-yl) (6-morpholino-pyridin-3-yl) methanone]
> 10000	0.7	5820	4.2	3410	3720	O=S(=O)(c1ccc(N2CCC(O)CC2)nc1)N1CCCC1c1ccccc1-c1cncn1CCc1ccc(F)cc1 (single isomer, unassigned) [Compound 32, (R or S)-1-(5-((2-(2-(1-(4-fluorophenethyl)-1H-imidazol-5-yl)phenyl)pyrrolidin-1-yl)sulfonyl)pyridin-2-yl) piperidin-4-ol]
2610	17	288	39	121	505	C[C@H](c1ccc(F)cc1)n1cncc1-c1ccc2c(c1)CN(S(=O)(=O)c1cnc(N)s1)CC2 [Compound 2, (R)-5-((7-(1-(1-(4-fluorophenyl)ethyl)-1H-imidazol-5-yl)-3,4-dihydroisoquinolin-2(1H)-yl)sulfonyl)thiazol-2-amine]
6070	10.6	2880	22.9	3180	5990	CC(=O)Nc1ncc(S(=O)(=O)NC(C)(C)c2ccccc2-c2cncn2CCc2ccc(F)cc2)s1 [Compound 7, N-(5-(N-(2-(2-(1-(4-fluorophenethyl)-1H-imidazol-5-yl)phenyl)propan-2-yl)sulfamoyl)thia-zol-2-yl)acetamide]
9300	32.3	6800	24.2	5430	> 10000	O=C(c1cccnc1)N1CCCC1c1cccc(-c2cncn2CCc2ccc(F)cc2)c1 (single isomer, unassigned) [Compound 48a, (R or S)-(2-(3-(1-(4-fluorophenethyl)-1H-imidazol-5-yl)phenyl)pyrrolidin-1-yl) (pyridin-3-yl) methanone]
> 10000	20.1	> 10000	46.6	6520	> 10000	O=C(C1CC1)N1CCCC1c1ccccc1-c1cncn1CCc1ccc(F)cc1 (single isomer, unassigned) [Compound 44a, (R or S)-cyclopropyl(2-(2-(1-(4-fluorophenethyl)-1H-imidazol-5-yl)phenyl)pyrrolidin-1-yl)methanone]
> 10000	1.9	2170	4.5	2830	1350	CN1CCN(c2ncc(S(=O)(=O)N3CCc4c(cccc4-c4cncn4CCc4ccc(F)cc4)C3)s2)CC1 [Compound 58, 5-((5-(1-(4-fluorophenethyl)-1H-imidazol-5-yl)-3,4-dihydroisoquinolin-2(1H)-yl)sulfonyl)-2-(4-methylpiperazin-1-yl)thiazole]
> 10000	80	> 10000	65	> 10000	> 10000	CN1CCN(c2ncc(S(=O)(=O)NC(c3ccccc3)c3ccccc3-c3cncn3CCc3ccc(F)cc3)s2)CC1 (stereo not drawn) [Compound 5, N-((2-(1-(4-fluorophenethyl)-1H-imidazol-5-yl)phenyl) (phenyl)methyl)-2-(4-methylpiperazin-1-yl)thiazole-5-sulfonamide]
> 10000	16.4	3200	9.5	> 10000	6270	O=S(=O)(NCc1ccccc1-c1cncn1CCc1ccc(F)cc1)c1cnc(N2CCN3C[C@H](O)C[C@H]3C2)s1 [Compound 19, N-(2-(1-(4-fluorophenethyl)-1H-imidazol-5-yl)benzyl)-2-((7R,8aS)-7-hydroxyhexahydropyrrolo[1,2-a]pyrazin-2 (1H)-yl)thiazole-5-sulfonamide]
158	0.92	163	5.1	56	63.8	O=C(NCc1ccc(S(=O)(=O)N2CCCC2c2cccc(-c3cncn3CCc3ccc(F)cc3)c2)s1)c1ccccc1 (single isomer, unassigned) [Compound 55b, (R or S)-N-((5-((2-(3-(1-(4-fluorophenethyl)-1H-imidazol-5-yl)phenyl)pyrrolidin-1-yl)sulfonyl)thiophen-2-yl)methyl) benzamide]
